Where two headings read alike, the source gives them in different places.
How the values were obtained:
[1] = tested on: S. aureus ATCC 33591
Outline: (§1)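 Salt and pH tolerance was assessed by determining MICs in LYM medium containing 50–300 mM NaCl, 0.5–2.5 mM MgCl2, or at pH 4.5–6.5, alongside MH broth. The inoculum was 5 × 10^5 CFU/mL.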

[2] = tested on: S. aureus ATCC 6538
Outline: as §1

[3] = tested on: A. baumannii 14B00100 (Acinetobacter sp., BCRC number 14B0100)
Outline: as §1

[4] = tested on: Pseudomonas aeruginosa Migula (ATCC 27853)
Outline: as §1

[5] = tested on: A. baumannii 14B0091 (Acinetobacter sp., BCRC number 14B0091)
Outline: as §1

[6] = tested on: S. aureus ATCC 25923
Outline: as §1

[7] = tested on: A. baumannii 14B0097 (Acinetobacter sp., BCRC number 14B0097)
Outline: as §1

[8] = LYM broth, 0 mM NaCl, 16 h, 37 °C
[9] = LYM broth, 50 mM NaCl, 16 h, 37 °C
[10] = LYM broth, 100 mM NaCl, 16 h, 37 °C
[11] = LYM broth, 200 mM (NaCl), 16 h, 37 °C
[12] = LYM broth, 300 mM (NaCl), 16 h, 37 °C
[13] = MH broth, 5 × 10^5 CFU/mL, 16 h, 37 °C, repeated three times

Ac-WRKWLKWLAKKKK-NH2 [Peptide W5K02] gave an MIC [1, 8] of 6.25 µg/mL, an MIC ([1]; LYM broth, 0.5 mM MgCl2) of 6.25 µg/mL and an MIC ([1]; LYM broth, 1.5 mM MgCl2) of 6.25 µg/mL. The MIC ([1]; LYM broth, 2.5 mM MgCl2) was 6.25 µg/mL, the MIC [1, 9] was 6.25 µg/mL and the MIC [1, 10] was 12.5 µg/mL. It also gave an MIC [1, 11] of 50 µg/mL, an MIC [1, 12] of 50 µg/mL and an MIC ([1]; LYM broth, pH 4.5) of 6.25 µg/mL. For the same substance, the MIC ([1]; LYM broth, pH 5.5) was 6.25 µg/mL, the MIC ([1]; LYM broth, pH 6.5) was 6.25 µg/mL and the MIC [1, 13] was 25 µg/mL. The MIC [2, 8] was 6.25 µg/mL, the MIC ([2]; LYM broth, 0.5 mM MgCl2) was 3.13 µg/mL and the MIC ([2]; LYM broth, 1.5 mM MgCl2) was 3.13 µg/mL. For the same substance, the MIC ([2]; LYM broth, 2.5 mM MgCl2) was 6.25 µg/mL, the MIC [2, 9] was 6.25 µg/mL and the MIC [2, 10] was 12.5 µg/mL. The MIC [2, 11] was 25 µg/mL, the MIC [2, 12] was 50 µg/mL and the MIC ([2]; LYM broth, pH 4.5) was 6.25 µg/mL. The MIC ([2]; LYM broth, pH 5.5) was 3.13 µg/mL, the MIC ([2]; LYM broth, pH 6.5) was 3.13 µg/mL and the MIC [2, 13] was 12.5 µg/mL. It also gave an MIC [3, 8] of 1.56 µg/mL, an MIC ([3]; LYM broth, 0.5 mM MgCl2) of 1.56 µg/mL and an MIC ([3]; LYM broth, 1.5 mM MgCl2) of 1.56 µg/mL. It also gave an MIC ([3]; LYM broth, 2.5 mM MgCl2) of 3.13 µg/mL, an MIC [3, 9] of 1.56 µg/mL and an MIC [3, 10] of 1.56 µg/mL. For the same substance, the MIC [3, 11] was 3.13 µg/mL, the MIC [3, 12] was 6.25 µg/mL and the MIC ([3]; LYM broth, pH 4.5) was 1.56 µg/mL. The MIC ([3]; LYM broth, pH 5.5) was 1.56 µg/mL, the MIC ([3]; LYM broth, pH 6.5) was 1.56 µg/mL and the MIC [3, 13] was 6.25 µg/mL. The MIC [4, 8] was 6.25 µg/mL, the MIC ([4]; LYM broth, 0.5 mM MgCl2) was 6.25 µg/mL and the MIC ([4]; LYM broth, 1.5 mM MgCl2) was 6.25 µg/mL. For the same substance, the MIC ([4]; LYM broth, 2.5 mM MgCl2) was 6.25 µg/mL, the MIC [4, 9] was 6.25 µg/mL and the MIC [4, 10] was 25 µg/mL. The MIC [4, 11] was greater than 50 µg/mL, the MIC [4, 12] was greater than 50 µg/mL and the MIC ([4]; LYM broth, pH 4.5) was 3.13 µg/mL. The MIC ([4]; LYM broth, pH 5.5) was 3.13 µg/mL, the MIC ([4]; LYM broth, pH 6.5) was 3.13 µg/mL and the MIC [4, 13] was 25 µg/mL. For the same substance, the MIC [5, 8] was 1.56 µg/mL, the MIC ([5]; LYM broth, 0.5 mM MgCl2) was 1.56 µg/mL and the MIC ([5]; LYM broth, 1.5 mM MgCl2) was 1.56 µg/mL. The MIC ([5]; LYM broth, 2.5 mM MgCl2) was 1.56 µg/mL, the MIC [5, 9] was 1.56 µg/mL and the MIC [5, 10] was 1.56 µg/mL. The MIC [5, 11] was 3.13 µg/mL, the MIC [5, 12] was 6.25 µg/mL and the MIC ([5]; LYM broth, pH 4.5) was 1.56 µg/mL. It also gave an MIC ([5]; LYM broth, pH 5.5) of 1.56 µg/mL, an MIC ([5]; LYM broth, pH 6.5) of 1.56 µg/mL and an MIC [5, 13] of 3.13 µg/mL. For the same substance, the MIC [6, 8] was 6.25 µg/mL, the MIC ([6]; LYM broth, 0.5 mM MgCl2) was 6.25 µg/mL and the MIC ([6]; LYM broth, 1.5 mM MgCl2) was 6.25 µg/mL. For the same substance, the MIC ([6]; LYM broth, 2.5 mM MgCl2) was 6.25 µg/mL, the MIC [6, 9] was 6.25 µg/mL and the MIC [6, 10] was 12.5 µg/mL. It also gave an MIC [6, 11] of 50 µg/mL, an MIC [6, 12] greater than 50 µg/mL and an MIC ([6]; LYM broth, pH 4.5) of 3.13 µg/mL. For the same substance, the MIC ([6]; LYM broth, pH 5.5) was 3.13 µg/mL, the MIC ([6]; LYM broth, pH 6.5) was 3.13 µg/mL and the MIC [6, 13] was 25 µg/mL. The MIC [7, 8] was 1.56 µg/mL, the MIC ([7]; LYM broth, 0.5 mM MgCl2) was 1.56 µg/mL and the MIC ([7]; LYM broth, 1.5 mM MgCl2) was 3.13 µg/mL. The MIC ([7]; LYM broth, 2.5 mM MgCl2) was 3.13 µg/mL, the MIC [7, 9] was 1.56 µg/mL and the MIC [7, 10] was 1.56 µg/mL. For the same substance, the MIC [7, 11] was 3.13 µg/mL, the MIC [7, 12] was 6.25 µg/mL and the MIC ([7]; LYM broth, pH 4.5) was 3.13 µg/mL. The MIC ([7]; LYM broth, pH 5.5) was 3.13 µg/mL, the MIC ([7]; LYM broth, pH 6.5) was 3.13 µg/mL and the MIC [7, 13] was 3.13 µg/mL.
